Laboratory results from US7399638B2, “Prediction method for lipidosis” (Takeda Pharmaceutical Company Limited, priority 2003, dated 2008).
Read-outs that look alike come from different tables or passages of the source. Marks after values point to notes of the source that are not given here.

Assays:
[1] = system: Crj: CD(SD)IGS rats; settings: rat, gavage once daily for 3 days; printed on the line of the lowest dose, dose group unclear
Method: Each test drug was administered by gavage at a dosing liquid volume of 10 mL/kg/day once daily for 3 days (4 days for the negative control). The animals were examined for mortality, general conditions, body weight, food consumption and the like using PM4800 (Mettler) and EB3200D (Shimadzu Corporation).

[2] = in vivo; cited from earlier work
[3] = system: Crj: CD(SD)IGS rats; settings: rat, in vivo
[4] = system: Crj: CD(SD)IGS rats; test: Urinary PAG/hippuric acid ratio by 1H NMR in rats; settings: rat urine, 3 days, mean n = 3-4
Method: During the urine pooling, the collecting vessels were kept in an ice-cooled condition. After the urine collection, the urine was centrifuged at 1500×g for 10 minutes, and not less than 1 mL of the supernatant was collected and stored under freezing (below −70° C.) in a microtube in an ultralow-temperature freezer until the measurement. For the negative control group, 24-hour pooled urine was collected under ice cooling; after the urine collection, the urine was stored at −30° C. until the measurement.

[5] = system: Crj: CD(SD)IGS rats; settings: male, rat, in vivo, 3 days
Method: The following 10 kinds of commercially available drugs were examined as the test compounds for a potential of inducing PLsis by histopathological examination and peripheral blood lymphocyte testing.
The following experiments were performed using the prematurely autopsied animals.
The high-dose dosing suspension was diluted about 3 fold and 10 fold with dispersant/solvent to prepare intermediate- and low-dose dosing suspensions. […] [For LD50, the Summary Basis of Approval (FDA) for each drug was referenced to.]
The animals were examined for mortality, general conditions, body weight, food consumption and the like using PM4800 (Mettler) and EB3200D (Shimadzu Corporation).
Hematological examination was performed for parameters such as RBC count, hematocrit, hemoglobin concentration, mean corpuscular hemoglobin (MCH), mean corpuscular hemoglobin concentration (MCHC), mean corpuscular volume (MCV), platelet count, WBC count, reticulocyte count, differential WBC, and vacuolated lymphocyte ratio (for PLsis-inducing compounds only) using ADVIA120 (Bayer Medical Ltd.) and E-4000 (Sysmex Corporation).

For CN(C)CCCN1c2ccccc2CCc2ccc(Cl)cc21 [Clomipramine, clomipramine], the “death (note beside the dose)” value [1] is listed as “(death)”, the LD50 [2] is listed as 914 mg/kg and the “Histopathological changes (PLsis): Liver” value ([3]; 100 mg/kg/day) is listed as “−”. The “Histopathological changes (PLsis): Lung” value ([3]; 100 mg/kg/day) was “−”, the “Histopathological changes (PLsis): Lymph node” value ([3]; 100 mg/kg/day) was “−” and the “Histopathological changes (PLsis): Others” value ([3]; 100 mg/kg/day) was “−”. The “Histopathological changes (PLsis): Spleen” value ([3]; 100 mg/kg/day) was “−”, the “Histopathological changes (PLsis): Liver” value ([3]; 300 mg/kg/day) was “−” and the “Histopathological changes (PLsis): Lung” value ([3]; 300 mg/kg/day) was “+”. For the same compound, the “Histopathological changes (PLsis): Lymph node” value ([3]; 300 mg/kg/day) was “+”, the “Histopathological changes (PLsis): Others” value ([3]; 300 mg/kg/day) was “−” and the “Histopathological changes (PLsis): Spleen” value ([3]; 300 mg/kg/day) was “−”. For the same compound, the “Histopathological changes (PLsis): Liver” value ([3]; 1000 mg/kg/day) was “+”, the “Histopathological changes (PLsis): Lung” value ([3]; 1000 mg/kg/day) was “−” and the “Histopathological changes (PLsis): Lymph node” value ([3]; 1000 mg/kg/day) was “+”. The “Histopathological changes (PLsis): Others” value ([3]; 1000 mg/kg/day) was “Kidney”, the “Histopathological changes (PLsis): Spleen” value ([3]; 1000 mg/kg/day) was “−” and the “PAG + hippuric acid/creatinine” value ([4]; 100 mg/kg/day by gavage) was 1.42. For the same compound, the “PAG/PAG + hippuric acid” value ([4]; 100 mg/kg/day by gavage) was 14.27%, the “PAG/creatinine (first term of PAG + hippuric acid)” value ([4]; 100 mg/kg/day by gavage) was 0.20 and the PAG/hippuric acid ([4]; 100 mg/kg/day by gavage) was 16.79%. For the same compound, the “hippuric acid/creatinine (second term of PAG + hippuric acid)” value ([4]; 100 mg/kg/day by gavage) was 1.22, the “PAG + hippuric acid/creatinine” value ([4]; 300 mg/kg/day by gavage) was 0.74* and the “PAG/PAG + hippuric acid” value ([4]; 300 mg/kg/day by gavage) was 33.36* %. For the same compound, the “PAG/creatinine (first term of PAG + hippuric acid)” value ([4]; 300 mg/kg/day by gavage) was 0.20, the PAG/hippuric acid ([4]; 300 mg/kg/day by gavage) was 62.72* % and the “hippuric acid/creatinine (second term of PAG + hippuric acid)” value ([4]; 300 mg/kg/day by gavage) was 0.52. For the same compound, the “Mean vacuolated lymphocyte ratio” value ([5]; 100 mg/kg/day) was 2%, the “Mean vacuolated lymphocyte ratio” value ([5]; 300 mg/kg/day) was 30% and the “Mean vacuolated lymphocyte ratio” value ([5]; 1000 mg/kg/day) was 38%.
